Here are results for 1 compound from US10233178B2, “Arylcyclopropylamine based demethylase inhibitors of LSD1 and their medical use” (priority 2010, dated 2019).

One assay deals with MAO-A (Homo sapiens (Human), UniProt P21397). The assay can be described thus: biochemical.
The next assay has as its target MAO-B (Homo sapiens (Human), UniProt P27338). The assay is described as follows: biochemical.

Sequence of MAO-B (P27338 whole entry): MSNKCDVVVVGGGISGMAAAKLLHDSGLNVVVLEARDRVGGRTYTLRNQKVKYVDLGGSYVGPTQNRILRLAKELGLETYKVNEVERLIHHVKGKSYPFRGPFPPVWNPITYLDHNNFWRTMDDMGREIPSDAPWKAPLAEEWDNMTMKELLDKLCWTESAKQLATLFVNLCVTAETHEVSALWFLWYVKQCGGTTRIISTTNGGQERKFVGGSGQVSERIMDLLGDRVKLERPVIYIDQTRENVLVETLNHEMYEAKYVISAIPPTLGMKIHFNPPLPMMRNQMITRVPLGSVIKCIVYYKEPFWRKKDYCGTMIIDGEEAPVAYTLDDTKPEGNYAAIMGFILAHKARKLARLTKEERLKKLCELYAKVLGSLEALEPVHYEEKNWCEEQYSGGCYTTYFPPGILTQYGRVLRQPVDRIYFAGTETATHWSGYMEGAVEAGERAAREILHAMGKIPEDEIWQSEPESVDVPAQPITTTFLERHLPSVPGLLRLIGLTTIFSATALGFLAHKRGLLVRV
Sequence of MAO-A (P21397 whole entry): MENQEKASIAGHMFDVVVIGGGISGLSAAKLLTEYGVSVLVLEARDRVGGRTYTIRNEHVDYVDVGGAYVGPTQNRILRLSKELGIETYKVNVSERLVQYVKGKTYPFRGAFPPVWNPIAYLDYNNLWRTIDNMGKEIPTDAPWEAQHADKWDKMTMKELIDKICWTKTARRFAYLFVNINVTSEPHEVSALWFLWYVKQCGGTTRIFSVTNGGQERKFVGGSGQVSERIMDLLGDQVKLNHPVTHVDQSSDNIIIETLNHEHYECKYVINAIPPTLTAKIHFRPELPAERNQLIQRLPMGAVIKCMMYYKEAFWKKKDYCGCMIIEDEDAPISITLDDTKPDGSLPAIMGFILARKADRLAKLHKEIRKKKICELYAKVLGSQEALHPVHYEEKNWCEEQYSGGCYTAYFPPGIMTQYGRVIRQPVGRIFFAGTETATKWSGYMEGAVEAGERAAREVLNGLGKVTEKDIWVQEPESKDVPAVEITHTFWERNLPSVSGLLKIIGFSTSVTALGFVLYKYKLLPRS
Procedure for MAO-B: For MAO-B, the protein was kept between 1.8 and 3.6 ng/ul (Sigma M7441) and kynuramine (Sigma) at 50 uM was used as substrate.

`C#CCN[C@@H]1CCc2ccccc21` [Rasagiline]: the kinact/KI at MAO-A was found to be 62 M⁻¹ s⁻¹; at MAO-B, 7460 M⁻¹ s⁻¹.

The kinact/KI is the maximal inactivation rate divided by the concentration that gives half of it.
